These results are taken from patent US12084430B2, “Tricyclic urea compounds as JAK2 V617F inhibitors” (Incyte Corporation, priority 2022, dated 2024).

What is called IC50 is the point on the concentration scale where inhibition reaches its midpoint.

The target of assay [1] is T1, catalytic domain (JH1, amino acids 826-1132) of human JAK2 (Homo sapiens, UniProt O60674).
T1 construct: catalytic domain (JH1, amino acids 826-1132) of human JAK2; FLAG (N); biotin (biotinylated); purchased Carna Biosciences 08-445-20N; host or cells: baculovirus expression system
The assay is described as follows: JAK2 LanthaScreen JH1 binding assay. The following applies: read-out: JH1 Bind IC50. Here is the method: Example A. JAK2 LanthaScreen […] Binding Assay
JAK2 JH1 binding assay utilizes catalytic domain (JH1, amino acids 826-1132) of human JAK2 expressed as N-terminal FLAG-tagged, biotinylated protein in a baculovirus expression system (Carna Biosciences, Product #08-445-20N). The assay was conducted in black 384-well polystyrene plates in a final reaction volume of 20 μL. JAK2 JH1 (1.5 nM) was incubated with compounds (100 nL serially diluted in DMSO) in the presence of 50 nM fluorescent JAK2-JH1 tracer and 0.5 nM Streptavidin-Tb cryptate (Cisbio Part #610SATLB) in assay buffer (50 mM Tris, pH=7.5, 10 mM MgCl2, 0.01% Brij-35, 0.1% BSA, 1 mM EGTA, 5% Glycerol and 5 mM DTT). Non-specific binding was accessed in the presence of 2 mM ATP. After incubation for 2 hours at 25° C., LanthaScreen signals were read on a PHERAstar FS plate reader (BMG LABTECH). Data was analyzed with IDBS XLfit and GraphPad Prism 5.0 software using a four parameter dose response curve to determine IC50 for each compound.
Background: Time-resolved FRET reads energy transfer from a long-lived donor to a nearby acceptor.

The target of assay [2] is T2, FLT3 (Homo sapiens, UniProt P36888).
T2 sequence (P36888 27-993): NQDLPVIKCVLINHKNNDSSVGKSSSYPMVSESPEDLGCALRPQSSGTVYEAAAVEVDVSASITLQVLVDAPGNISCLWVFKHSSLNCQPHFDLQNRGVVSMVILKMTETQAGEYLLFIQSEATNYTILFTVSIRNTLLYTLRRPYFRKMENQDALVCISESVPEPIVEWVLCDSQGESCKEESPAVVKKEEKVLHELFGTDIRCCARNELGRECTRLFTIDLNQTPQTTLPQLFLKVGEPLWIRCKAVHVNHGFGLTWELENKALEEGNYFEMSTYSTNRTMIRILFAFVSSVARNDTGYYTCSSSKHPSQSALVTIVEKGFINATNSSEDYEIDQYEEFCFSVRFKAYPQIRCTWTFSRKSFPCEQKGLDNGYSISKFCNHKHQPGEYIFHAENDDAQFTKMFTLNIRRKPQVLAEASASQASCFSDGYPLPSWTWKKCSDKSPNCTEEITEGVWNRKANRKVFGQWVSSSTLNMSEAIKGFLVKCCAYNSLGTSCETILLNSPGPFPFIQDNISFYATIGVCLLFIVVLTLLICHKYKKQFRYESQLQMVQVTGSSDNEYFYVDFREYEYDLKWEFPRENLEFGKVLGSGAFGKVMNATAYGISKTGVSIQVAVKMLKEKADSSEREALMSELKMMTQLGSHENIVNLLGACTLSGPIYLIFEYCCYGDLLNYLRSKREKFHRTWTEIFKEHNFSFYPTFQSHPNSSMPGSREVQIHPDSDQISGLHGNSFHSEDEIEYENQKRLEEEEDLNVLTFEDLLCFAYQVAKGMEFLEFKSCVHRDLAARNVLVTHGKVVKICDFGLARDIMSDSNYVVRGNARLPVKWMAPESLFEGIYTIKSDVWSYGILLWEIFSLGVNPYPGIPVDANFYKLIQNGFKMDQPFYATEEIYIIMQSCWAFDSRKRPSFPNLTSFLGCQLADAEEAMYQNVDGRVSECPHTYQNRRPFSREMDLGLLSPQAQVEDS
The assay is described as follows: FLT3 enzymatic assay. Format: biochemical. The note with it: 1 mM ATP. In a few lines: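 Kinase reaction at room temperature in HEPES 50 mM pH 7.0 with 10 mM MgCl2, 1 mM DTT: 0.011 nM FLT3, 1 mM ATP, 500 nM biotinylated TK substrate, 0.5% DMSO. After 60 min, HTRF read as 665/620 nm ratio; IC50 from fit of percent control activity versus log concentration.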

Assay [3] deals with T3, pseudo-kinase domain (JH2) of human V617F mutant JAK2 (Homo sapiens, UniProt O60674, F794H/V617F/W659A/W777A).
T3 construct: pseudo-kinase domain (JH2, amino-acids 536-812 with 3 surface mutations W659A, W777A, F794H); His (C); purchased BPS Bioscience 79498; host or cells: baculovirus expression system
The assay can be described thus: JAK2 LanthaScreen JH2-V617F binding assay. The note with it: read-out: JH2 V617F Bind IC50. As for the experimental part:
Example B. JAK2 LanthaScreen JH2-V617F Binding Assay
JAK2 JH2-V617F binding assay utilizes pseudo-kinase domain (JH2, amino-acids 536-812 with 3 surface mutations W659A, W777A, F794H) of human V617F mutant JAK2 expressed as C-terminal His-Avi-tagged, biotinylated protein in a baculovirus expression system (BPS Bioscience, Catalog #79498). The assay was conducted in black 384-well polystyrene plates in a final reaction volume of 20 μL. JAK2 JH2-V617F (0.26 nM) was incubated with compounds (100 nL serially diluted in DMSO) in the presence of 50 nM Fluorescent JAK2-JH2 Tracer (MedChem Express Catalog #HY-102055) and 0.25 nM Streptavidin-Tb cryptate (Cisbio Part #610SATLB) in assay buffer (50 mM Tris, pH=7.5, 10 mM MgCl2, 0.01% Brij-35, 0.1% BSA, 1 mM EGTA, 5% Glycerol and 5 mM DTT). Non-specific binding was accessed in the presence of 2 mM ATP. After incubation for 1 hour at 25° C., LanthaScreen signals were read on a PHERAstar FS plate reader (BMG LABTECH). Data was analyzed with IDBS XLfit and GraphPad Prism 5.0 software using a four parameter dose response curve to determine IC50 for each compound.

Read-outs that look alike come from different tables or passages of the source. A value given as a limit tells only on which side of the number the result lay.

T3 sequence (O60674 536-812 V617F/W659A/W777A/F794H): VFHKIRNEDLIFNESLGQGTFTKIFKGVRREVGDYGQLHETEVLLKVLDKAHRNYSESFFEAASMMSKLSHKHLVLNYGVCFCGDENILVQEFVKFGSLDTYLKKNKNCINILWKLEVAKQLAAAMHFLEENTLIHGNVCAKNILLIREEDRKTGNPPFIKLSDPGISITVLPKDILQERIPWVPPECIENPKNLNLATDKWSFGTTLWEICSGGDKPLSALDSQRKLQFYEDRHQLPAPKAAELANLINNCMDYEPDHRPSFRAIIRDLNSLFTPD
T1 sequence (O60674 826-1132): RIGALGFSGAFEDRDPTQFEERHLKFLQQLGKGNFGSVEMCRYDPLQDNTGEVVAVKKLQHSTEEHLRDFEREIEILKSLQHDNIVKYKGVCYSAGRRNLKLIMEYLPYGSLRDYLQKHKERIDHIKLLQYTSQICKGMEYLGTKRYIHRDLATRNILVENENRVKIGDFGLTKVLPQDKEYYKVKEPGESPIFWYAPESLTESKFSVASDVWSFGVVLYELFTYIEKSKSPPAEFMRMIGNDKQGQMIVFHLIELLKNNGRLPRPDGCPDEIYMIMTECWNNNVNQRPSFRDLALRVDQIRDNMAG

Regarding `[2H]C([2H])([2H])n1c(=O)n([C@@H]2CC[C@@H](NC(=O)OC)C2)c2c3c(-c4ccc5c(c4)COC5(C)C)c(-c4cn(CC(F)F)nc4F)[nH]c3ncc21` [Example 12, Methyl ((1R,3R)-3-(7-(1-(2,2-difluoroethyl)-3-fluoro-1H-pyrazol-4-yl)-8-(1,1-dimethyl-1,3-dihydroisobenzofuran-5-yl)-3-(methyl-d3)-2-oxo-3,6-dihydroimidazo[4,5-d]pyrrolo[2,3-b]pyridin-1(2H)-yl)cyclopentyl)carbamate], the IC50 was greater than 1000 nM in assay [1] (Table A); greater than 1000 nM in assay [1] (Table C); greater than 2500 nM in assay [2]; no more than 10 nM in assay [3] (Table A); no more than 10 nM in assay [3] (Table C).

Turning to `[2H]C([2H])([2H])n1cc(-c2[nH]c3ncc4c(c3c2-c2ccc3c(cnn3C(C)C)c2)n([C@@H]2CC[C@@H](NC(=O)OC)C2)c(=O)n4C([2H])([2H])[2H])c(F)n1` [Example 13, Methyl ((1R,3R)-3-(7-(3-fluoro-1-(methyl-d3)-1H-pyrazol-4-yl)-8-(1-isopropyl-1H-indazol-5-yl)-3-(methyl-d3)-2-oxo-3,6-dihydroimidazo[4,5-d]pyrrolo[2,3-b]pyridin-1(2H)-yl)cyclopentyl)carbamate], the IC50 in assay [1] (Table A) is greater than 1000 nM; in assay [1] (Table C) it was greater than 1000 nM; in assay [2] it was greater than 2500 nM; in assay [3] (Table A), no more than 10 nM; in assay [3] (Table C), no more than 10 nM.

`COC(=O)N[C@@H]1CC[C@@H](n2c(=O)n(C)c3cnc4[nH]c(-c5cn(C)nc5OC)c(-c5cccc(F)c5)c4c32)C1` [Example 3, Methyl ((1R,3R)-3-(8-(3-fluorophenyl)-7-(3-methoxy-1-methyl-1H-pyrazol-4-yl)-3-methyl-2-oxo-3,6-dihydroimidazo[4,5-d]pyrrolo[2,3-b]pyridin-1(2H)-yl)cyclopentyl)carbamate]: the IC50 was greater than 1000 nM in assay [1] (Table A); greater than 1000 nM in assay [1] (Table C); greater than 2500 nM in assay [2]; no more than 10 nM in assay [3] (Table A); no more than 10 nM in assay [3] (Table C).

Take `[2H]C([2H])([2H])n1ncc2cc(-c3c(-c4cn(C([2H])([2H])C([2H])([2H])[2H])nc4F)[nH]c4ncc5c(c34)n([C@@H]3CC[C@@H](NC(=O)OC)C3)c(=O)n5C([2H])([2H])[2H])ccc21` [Example 15, Methyl ((1R,3R)-3-(7-(1-(ethyl-d5)-3-fluoro-1H-pyrazol-4-yl)-3-(methyl-d3)-8-(1-(methyl-d3)-1H-indazol-5-yl)-2-oxo-3,6-dihydroimidazo[4,5-d]pyrrolo[2,3-b]pyridin-1(2H)-yl)cyclopentyl)carbamate]: the half-inhibitory concentration (IC50) in assay [1] (Table A) was greater than 1000 nM; in assay [1] (Table C) it was greater than 1000 nM; in assay [2] it was 250 to 1250 nM; in assay [3] (Table A), no more than 10 nM; in assay [3] (Table C), no more than 10 nM.

Take `[2H]C([2H])([2H])n1cc(-c2[nH]c3ncc4c(c3c2-c2ccc3c(cnn3CC(F)F)c2)n([C@@H]2CC[C@@H](NC(=O)OC)C2)c(=O)n4C)c(F)n1` [Example 18, Methyl ((1R,3R)-3-(8-(1-(2,2-difluoroethyl)-1H-indazol-5-yl)-7-(3-fluoro-1-(methyl-d3)-1H-pyrazol-4-yl)-3-methyl-2-oxo-3,6-dihydroimidazo[4,5-d]pyrrolo[2,3-b]pyridin-1(2H)-yl)cyclopentyl)carbamate]: the IC50 in assay [1] (Table A) is greater than 1000 nM; in assay [1] (Table C), greater than 1000 nM; in assay [2], 1250 to 2500 nM; in assay [3] (Table A), no more than 10 nM; in assay [3] (Table C), no more than 10 nM.

In the case of `COC(=O)N[C@@H]1CC[C@@H](n2c(=O)n(C)c3cnc4[nH]c(-c5cn(C)nc5OC)c(-c5ccccc5)c4c32)C1` [Example 2, Methyl ((1R,3R)-3-(7-(3-methoxy-1-methyl-1H-pyrazol-4-yl)-3-methyl-2-oxo-8-phenyl-3,6-dihydroimidazo[4,5-d]pyrrolo[2,3-b]pyridin-1(2H)-yl)cyclopentyl)carbamate], the IC50 was greater than 1000 nM in assay [1] (Table A); greater than 1000 nM in assay [1] (Table C); greater than 2500 nM in assay [2]; no more than 10 nM in assay [3] (Table A); no more than 10 nM in assay [3] (Table C).

Consider `COC(=O)N[C@@H]1CC[C@@H](n2c(=O)n(C)c3cnc4[nH]c(-c5cn(C)nc5OC)c(-c5ccc(F)cc5)c4c32)C1` [Example 1, Methyl ((1R,3R)-3-(8-(4-fluorophenyl)-7-(3-methoxy-1-methyl-1H-pyrazol-4-yl)-3-methyl-2-oxo-3,6-dihydroimidazo[4,5-d]pyrrolo[2,3-b]pyridin-1(2H)-yl)cyclopentyl)carbamate], for which the IC50 in assay [1] (Table A) was greater than 1000 nM; in assay [1] (Table C), greater than 1000 nM; in assay [2] it was greater than 2500 nM; in assay [3] (Table A), no more than 10 nM; in assay [3] (Table C), no more than 10 nM.

For the compound `[2H]C([2H])([2H])Oc1ccc(-c2c(-c3cn(C([2H])([2H])[2H])nc3F)[nH]c3ncc4c(c23)n([C@@H]2CC[C@@H](NC(=O)OC)C2)c(=O)n4C([2H])([2H])[2H])cc1` [Example 9, Methyl ((1R,3R)-3-(7-(3-fluoro-1-(methyl-d3)-1H-pyrazol-4-yl)-8-(4-(methoxy-d3)phenyl)-3-(methyl-d3)-2-oxo-3,6-dihydroimidazo[4,5-d]pyrrolo[2,3-b]pyridin-1(2H)-yl)cyclopentyl)carbamate], the IC50 in assay [1] (Table A) was greater than 1000 nM; in assay [1] (Table C), greater than 1000 nM; in assay [2], 250 to 1250 nM; in assay [3] (Table A), no more than 10 nM; in assay [3] (Table C), no more than 10 nM.

In the case of `[2H]C([2H])([2H])n1cc(-c2[nH]c3ncc4c(c3c2-c2ccc3c(c2)COC3(C)C)n([C@@H]2CC[C@@H](NC(=O)OC)C2)c(=O)n4C)c(F)n1` [Example 11, Methyl ((1R,3R)-3-(8-(1,1-dimethyl-1,3-dihydroisobenzofuran-5-yl)-7-(3-fluoro-1-(methyl-d3)-1H-pyrazol-4-yl)-3-methyl-2-oxo-3,6-dihydroimidazo[4,5-d]pyrrolo[2,3-b]pyridin-1(2H)-yl)cyclopentyl)carbamate], the IC50 in assay [1] (Table A) was greater than 1000 nM; in assay [1] (Table C), greater than 1000 nM; in assay [2] it was greater than 2500 nM; in assay [3] (Table A), no more than 10 nM; in assay [3] (Table C) it was no more than 10 nM.
